Measured values as given in patent US20030216471A1, “Retinoid formulations for aerosolization and inhalation” (priority 2003, published 2003).
“Also recorded” adds a separate entry of the source.

What was measured:
RARγ = assay: Western blot of SENCAR mouse liver, dietary RA 75 weeks, RAR γ; format: in vivo; conditions: for RARγ densitometry of Western blots: liver
Experimental: (§1) Tissues were collected, frozen in dry ice and kept at −70° C. until used. 500 mg aliquots were diced in small pieces and homogenized in 300 μl of cold PBS, using the hand held homogenizer for 2˜3 minutes. Sample and washes were centrifuged at 5000×g for 20 minutes. The pellet was suspended in 400 μl of ice-cold Buffer A [2 μl 0.5M EDTA, 10 μl 100 mM EGTA, 50 μl 100MM PMSF, 10 μl 1M DTT, 10 ml (10 mM HEPES pH 7.9+10 mM KCl)], and left at ice temperature for 15 minutes. 25 μl of 10% solution of NP-40 was added and samples were mixed in a vortex vigorously for 10 seconds. Samples were centrifuged at 14,000×g for 1 minute at 4° C. and the pellet treated once more in this fashion (resuspended etc.). The supernatant was removed and 100 μl of ice-cold Buffer C [4 μl 0.5M EDTA, 20 μl 100 mM EGTA, 20 μl 100 mM PMSF, 2 μl 1M DTT, 2 ml (20 mM HEPES pH 7.9+0.4M NaCl)] was added. Pellets were resuspended by tapping gently on the bottom of the Eppendorf tubes. Samples were rocked vigorously in a bucket of ice on an orbital shaker for 30 minutes. Samples were centrifuged at 14,000×g for 5 minutes at 4° C.
(§2) Samples were prepared by adding one part of the Sample Buffer to one part of the sample and mixing well. Samples were heated at 95° C. for 5 minutes to induce denaturation. 5 μl of Rainbow Standard and 5 μl of Biotinylated Molecular Marker were added to parallel wells. 20 μg protein per sample was loaded in each lane. Electrophoresis was performed with voltage set at 125V for about 1˜1.5 hours. Gel transfer was executed at 25V for 2 hours. The membrane was stained in Ponceau S. for 5 minutes and destained with one wash of 5% acetic acid. The membrane was then washed in TBS solution until the staining disappeared. Membranes were incubated in 1 ml blocking solution and 9 ml TBS for 60 minutes. Membranes were incubated in 1 ml of blocking solution and 19 ml TBS along with 20 μl primary antibody solution overnight (dilution of 1:1000). Membranes were washed in PBS-Tween 20, 3 times for 10 minutes each. […]

RAR α = assay: Time course of dietary RA effect on SENCAR mouse liver RAR α; format: in vivo; conditions: pharmacological dietary RA over physiological RA, day 1
Experimental: (§3) SENCAR mice (30) were divided into six experimental groups.
as §1
(§4) Samples were prepared by adding one part of the Sample Buffer to one part of the sample and mixing well. Samples were heated at 95° C. for 5 minutes to induce denaturation. […]

RARα [1] = assay: Immunohistochemical analysis of SENCAR mouse liver, dietary RA; format: in vivo; conditions: pharmacological RA diet compared to physiological RA, 75 weeks
Experimental: Liver tissue (approximately 300 mg) was fixed in 10% formalin, embedded in paraffin and 5 μm sections were used for immunohistochemistry. Staining for RAR was similar to our previously described protocol {8656}. ABC kit Mouse/Rabbit IgG and DAB Substrate kit were used (Vector Laboratories Inc., 30 Ingold Road Burlingame, Calif.).

TGase II = TGase II activity in cultured human breast cancer MCF-7 cells; format: cell-based
Experimental: Cells were harvested and Transglutaminase II activity was measured as described below. Nebulizer solution, inhalation procedures, details of animal housing are described below.
Cultured cells were placed in 100 μl scraping buffer [A: 2800 μl (400 μl 0.5M Na-Phosphate, 500 μl 0.01M EDTA, 100 μl 1M DTT, 9 ml PBS total 10 ml)+B:700 μl (10 μl 20 mg/ml PMSF 790 μl PBS total 800 μl)] for each dish. Cells were broken by a sonicator and kept in ice until used. TGase II assay was conducted as described below and previously {8217}.
Enzyme assay mixtures were prepared by adding 80 μl of SUBSTRATE mixture (322.8 μl H2O, 120 μl 0.5M NaBorate, 60 μl 0.01M EDTA, 60 μl 0.1M CaCl2, 6 μl 1M DTT, 240 μl dimethyl casein, 30 μl Triton X-100, 1.21 μl [^3H]-Putrescine, 120 μl Putrescine) to 20 μl sample, 20 μl scraping buffer for blank control, 20 μl (18 μl scraping buffer+2 μl TGase II) for positive control. Samples were mixed in 15 ml tubes, the tubes were shaken before putting them into a 28° C. water bath for 30 minutes. Reactions were slowed down in an ice bath. 80 μl of the incubation mixture was adsorbed onto paper disks. These were immediately dropped into cold 10% TCA (0.1% Putrescine) and washed with agitation for 7 minutes, followed by 2 additional washes with 5% TCA (0.05% putrescine) for 5-7 minutes, and once more with cold (−20° C.) 95% ethanol for 5 minutes. Paper disks were dried and placed into 5 ml Aquasol, and counted in a Liquid Scintillation Counter. Protein concentration determination was conducted by the Bradford method.

RARβ = assay: Western blot of SENCAR mouse liver, dietary RA 75 weeks, RAR β; format: in vivo; conditions: for RARβ densitometry of Western blots: liver
Experimental: as §1, §2

lung tissue RARs = assay: SENCAR mouse lung tissue RARs, dietary RA; format: in vivo
Experimental: as §3, §1, §4

RAR β = assay: Time course of dietary RA effect on SENCAR mouse liver RAR β; format: in vivo; conditions: pharmacological dietary RA over physiological RA, day 1
Experimental: as §3, §1, §4

RARα [2] = assay: Western blot of SENCAR mouse liver, dietary RA 75 weeks, RAR α; format: in vivo; conditions: for RARα densitometry of Western blots: liver
Experimental: as §1, §2

RAR γ = assay: Time course of dietary RA effect on SENCAR mouse liver RAR γ; format: in vivo; conditions: pharmacological dietary RA over physiological RA, day 1
Experimental: as §3, §1, §4

[3] = dietary RA 30 μg/g vs 3 μg/g diet, male SENCAR mice

## CC1=C(/C=C/C(C)=C/C=C/C(C)=C/C(=O)O)C(C)(C)CCC1 [RA, all-trans-retinoic acid]
RARγ; [3]
  upregulation of liver RAR (third named, γ): 12.5 fold
RARγ; RA diet 3 μg/g
  RARγ densitometry of Western blots: 23.1+/−6.7 IDV
RARγ; RA diet 30 μg/g
  RARγ densitometry of Western blots: 288+/−17.4 IDV
RAR α
  stimulation of liver RAR (first named, α): 2 fold
RARα [1]
  RARα immunohistochemical staining in liver nuclei: striking increase of RAR expression; also recorded: marked increase in staining
TGase II; MCF-7 cells treated at 10^−6 M for 72 hours, DMSO control 0.183
  TGase II Activity: 1.359+/−0.098 picomoles/μg protein/30 minutes
TGase II; MCF-7 cells, 10^−6 M, 72 hours, over DMSO
  stimulating TGase II activity: 7.4 Fold
RARβ; [3]
  upregulation of liver RAR (second named, β): 13.5 fold
RARβ; RA diet 3 μg/g
  RARβ densitometry of Western blots: 18.9+/−7.4 IDV
RARβ; RA diet 30 μg/g
  RARβ densitometry of Western blots: 254+/−31.9 IDV
Lung tissue RARs; long term feeding of 30 μg/g diet, SENCAR mouse
  effect of dietary RA on lung tissue RARs: failed to induce
Lung tissue RARs; time course, 1 to 28 days, 30 μg/g diet, not shown
  effect of dietary RA on lung tissue RARs: without any measurable effect; also recorded: no effect
RAR β
  stimulation of liver RAR (second named, β): 4 fold
RARα [2]; [3]
  upregulation of liver RAR (first named, α): 21.8 fold
RARα [2]; RA diet 3 μg/g
  RARα densitometry of Western blots: 12.1+/−7.2 IDV
RARα [2]; RA diet 30 μg/g
  RARα densitometry of Western blots: 264+/−21.3 IDV
RAR γ
  stimulation of liver RAR (third named, γ): 2.1 fold
